# Test results taken from patent publication US20090042951A1, “Blood Pressure Reduction in Salt-Sensitive Hypertension” (priority 2004, published 2009).
# What was measured:
# [1] = tested on: Dahl salt-sensitive (SS/Jr) rats; experiment: Telemetric arterial blood pressure monitoring in Dahl salt-sensitive rats on high salt diet; type: in vivo, rat; settings: for anti-hypertensive activity: found by the methods described herein
# Procedure: (§1) Male Dahl salt-resistant (SR/Jr) rats (250-300 gm, Harlan, Indianapolis, Ind.) were used as controls. Non-salt-sensitive, spontaneously hypertensive rats (SHR) were also employed in some experiments. Each rat was housed individually with a 12 hour light/12 hour dark cycle. The animal use protocols were approved by the Chicago—West Side Veterans Administration Institutional Animal Care and Use Committee.
# (§2) Arterial blood pressures in unrestrained rats were monitored using a model TA11PA-C20 (Data Science, International, St. Paul, Minn.) implantable telemetric blood pressure monitoring system. The rats were anesthetized using an intraperitoneal injection (50 mg/kg i.p.) of nembutol sodium solution prior to implantation of the monitor. The radio-transmitter catheter was inserted via a midline abdominal incision into the left femoral artery and sutured in place after the tip of the catheter was advanced into the proximal aorta. The catheter was tunneled under the skin and the body of the transmitter was positioned in a subcutaneous pocket near the right flank of the rat. Data acquisition began after normal diurnal blood pressure variability had been reestablished, typically about seven days after surgery. Continuous measurements of pulsatile central aortic blood pressure were recorded by a receiver placed under each rat's cage.
# A baseline arterial blood pressure was established for each rat from continuous measurements made over a two day period prior to the start of an experiment. […] Monitoring continued for four additional days. […] The p-value in both cases is less than 0.05.
# [2] = tested on: dogs; settings: administration of rolipram, increased cAMP; cited from earlier work
# [3] = tested on: spontaneously hypertensive rats (SHR); experiment: Telemetric arterial blood pressure monitoring in spontaneously hypertensive rats on 8% NaCl diet; type: in vivo, rat; settings: single IP injection 10 mg/kg, continuous telemetric recording
# Procedure: as §1
# as §2, with “cage. […]” for “cage.”
Structure (SMILES),anti-hypertensive activity [1],"duration of drop in blood pressure ([1]; Dahl SS/Jr rat, 8% NaCl diet, single IP injection 10 mg/kg)","effect on arterial blood pressure ([1]; Dahl SS/Jr rat, 8% NaCl diet, single IP injection 10 mg/kg, continuous telemetric recording)",renal vascular resistance [2],secretion of electrolytes [2],effect on arterial blood pressure [3]
O=c1c2cccnc2n(-c2cccc([N+](=O)[O-])c2)c(=O)n1Cc1ccncc1 [RS25344],exhibit anti-hypertensive activity,–,–,–,–,–
COc1ccc(C(=O)Nc2c(Cl)cncc2Cl)cc1OC1CCCC1 [RP73401],exhibit anti-hypertensive activity,–,–,–,–,–
CCn1c(=O)c2ccccc2n(-c2cccc([N+](=O)[O-])c2)c1=O [TVX2706],exhibit anti-hypertensive activity,–,–,–,–,–
"COc1ccc(C2CNC(=O)C2)cc1OC1CCCC1 (stereo not drawn) [rolipram, Rolipram]",exhibit anti-hypertensive activity,> 2 days,very significant and prolonged (>2 days) drop in blood pressure,reduces renal vascular resistance,promotes secretion of electrolytes,"brief, shallow dip in blood pressure immediately after rolipram injection followed by a gradual decline and recovery of blood pressure"
